# Structures can show the parent of a compound that is named as a salt. Where two headings read alike, the source gives them in different places.
# Tested on: Frataxin (FXN) mRNA
# Assay: Effect of HDAC inhibitors on frataxin (FXN) mRNA expression, qRT-PCR in compound-treated iPSC derived neuronal cells
# Type: cell-based
# Conditions: for fold induction at 0.625 µM: iPSC, 24 h
# Protocol: Effect of HDAC Inhibitors on Frataxin (FXN) mRNA Expression
# Method: mRNA quantification of compound-treated iPSC derived neuronal cells Neuronal stem cells were cultured in Neurobasal A medium (Life technologies #10888022) supplemented with N2, B27 (Life technologies #17502-048 and #17504-044), L-glutamine (Life technologies #25030081), supplemented with 20 ng/ml EGF (R&D Systems #236-EG) and 20 ng/ml bFGF (BioPioneer # HRP-0011). Neuronal differentiation was initiated by removing growth factors and culturing cells in Neurobasal A with N2 and B27. Cells were allowed to differentiate for 16 days. HDAC inhibitory compound was then added and incubate for 24 h. RNA isolation was performed using the RNeasy Plus mini kit (QIAgen #74134) using a QIAcube instrument per manufacturer's instructions. qRT-PCR was performed using qScript One-Step SYBR Green qRT-PCR Kit (Quanta Biosciences 170-8893BR) with the following conditions: 20 minutes at 50° C., 5 minutes at 95° C., and then 40 cycles of 20 seconds at 95° C., 20 seconds at 55° C., 30 seconds at 72° C. The primer sequences to detect expression of FXN were: 5′-[…]-3′ and 5′-[…]-3′.
# The data for the following compounds, for FXN mRNA fold induction at a compound concentration of 0.625 μM are shown in Table 1, where A<1, 1<B<2, 2<C<3, 3<D<5, E>5.
# [1] = compound concentration of 0.625 μM, 24 h incubation, read-out: FXN mRNA fold induction
# [2] = read-out: FXN mRNA fold induction, compound concentration of 0.625 μM, 24 h incubation
Structure (SMILES),fold induction at 0.625 µM [1],further results
"Nc1ccccc1NC(=O)c1ccc(OC2CCCN(CC3CCCCC3)CC2)cc1 (single isomer, unassigned) [Compound 40A, N-(2-aminophenyl)-4-((1-(cyclohexylmethyl)azepan-4-yl)oxy)benzamide dihydrochloride]",1 to 2,–
"Nc1ccccc1NC(=O)c1ccc(OC2CCCN(CC3CCCCC3)CC2)cc1 (single isomer, unassigned) [Compound 40B, N-(2-aminophenyl)-4-((1-(cyclohexylmethyl)azepan-4-yl)oxy)benzamide dihydrochloride]",–,"FXN mRNA fold induction (compound concentration of 0.625 μM, 24 h incubation, dihydrochloride, 0.625 µM): C (2<C<3)"
"Nc1ccccc1NC(=O)c1ccc(N[C@@H]2CCCN(CC3CCCCC3)CC2)cc1 (single isomer, unassigned) [Compound 85A]",2 to 3,–
"Nc1ccccc1NC(=O)c1ccc(N[C@H]2CCCN(CC3CCCCC3)CC2)cc1 (single isomer, unassigned) [Compound 85B]",2 to 3,–
"Nc1ccccc1NC(=O)c1ccc(OC2CCN(CC3CC3)CC2)cc1 [Compound 1, N-(2-aminophenyl)-4-((1-(cyclopropylmethyl)piperidin-4-yl)oxy)benzamide]",1 to 2,–
"CC(C)(O)CN1CCC(Oc2ccc(C(=O)Nc3ccccc3N)cc2)CC1 [Compound 2, N-(2-aminophenyl)-4-((1-(2-hydroxy-2-methylpropyl)piperidin-4-yl)oxy)benzamide]",1 to 2,–
"Nc1ccccc1NC(=O)c1ccc(NC2CCN(CC3CC3)CC2)cc1 [Compound 3, N-(2-aminophenyl)-4-((1-(cyclopropylmethyl)piperidin-4-yl)amino)benzamide]",1 to 2,–
"CC(C)(O)CN1CCC(Nc2ccc(C(=O)Nc3ccccc3N)cc2)CC1 [Compound 4, N-(2-aminophenyl)-4-((1-(2-hydroxy-2-methylpropyl)piperidin-4-yl)amino)benzamide]",1 to 2,–
"CN(c1ccc(C(=O)Nc2ccccc2N)cc1)C1CCN(CC2CC2)CC1 [Compound 5, N-(2-aminophenyl)-4-((1-(cyclopropylmethyl)piperidin-4-yl)(methyl)amino)benzamide]",–,fold induction at 0.625 µM [2]: 2 to 3
"CN(c1ccc(C(=O)Nc2ccccc2N)cc1)C1CCN(CC(C)(C)O)CC1 [Compound 6, N-(2-aminophenyl)-4-((1-(2-hydroxy-2-methylpropyl)piperidin-4-yl)(methyl)amino) benzamide]",–,fold induction at 0.625 µM [2]: 2 to 3
"CCN(c1ccc(C(=O)Nc2ccccc2N)cc1)C1CCN(CC2CC2)CC1 [Compound 26, N-(2-aminophenyl)-4-((1-(cyclopropylmethyl)piperidin-4-yl)(ethyl)amino)benzamide Trihydrochloride]",–,fold induction at 0.625 µM [2]: 2 to 3
"CCN(c1ccc(C(=O)Nc2ccccc2N)cc1)C1CCN(CC(C)(C)O)CC1 [Compound 27, N-(2-aminophenyl)-4-(ethyl(1-(2-hydroxy-2-methylpropyl)piperidin-4-yl)amino)benzamide Trihydrochloride]",–,fold induction at 0.625 µM [2]: 2 to 3
"Nc1ccccc1NC(=O)c1ccc(N(CC2CC2)C2CCN(CC3CC3)CC2)cc1 [Compound 28, N-(2-aminophenyl)-4-((cyclopropylmethyl)(1-(cyclopropylmethyl)piperidin-4-yl)amino)benzamide Trihydrochloride]",–,fold induction at 0.625 µM [2]: 2 to 3
"CC(C)(O)CN1CCC(N(CC2CC2)c2ccc(C(=O)Nc3ccccc3N)cc2)CC1 [Compound 29, N-(2-aminophenyl)-4-((cyclopropylmethyl)(1-(2-hydroxy-2-methylpropyl)piperidin-4-yl)amino)benzamide Trihydrochloride]",–,fold induction at 0.625 µM [2]: 1 to 2
"Nc1ccccc1NC(=O)c1ccc(OC2CCCNCC2)cc1 (stereo not shown) [Compound 33, N-(2-aminophenyl)-4-(azepan-4-yloxy)benzamide hydrochloride]",2 to 3,–
"CN1CCCC(Oc2ccc(C(=O)Nc3ccccc3N)cc2)CC1 (stereo not shown) [Compound 34, N-(2-aminophenyl)-4-((1-methylazepan-4-yl)oxy)benzamide bis(2,2,2-trifluoroacetate)]",1 to 2,–
"CC(C)CN1CCCC(Oc2ccc(C(=O)Nc3ccccc3N)cc2)CC1 (stereo not shown) [Compound 35, N-(2-aminophenyl)-4-((1-isobutylazepan-4-yl)oxy)benzamide dihydrochloride]",2 to 3,–
"CC(C)(O)CN1CCCC(Oc2ccc(C(=O)Nc3ccccc3N)cc2)CC1 (stereo not shown) [Compound 36, N-(2-aminophenyl)-4-((1-(2-hydroxy-2-methylpropyl)azepan-4-yl)oxy)benzamide dihydrochloride]",1 to 2,–
"CC(C)(C)CN1CCCC(Oc2ccc(C(=O)Nc3ccccc3N)cc2)CC1 (stereo not shown) [Compound 37, N-(2-aminophenyl)-4-((1-neopentylazepan-4-yl)oxy)benzamide]",2 to 3,–

Structure (SMILES),fold induction at 0.625 µM [1],further results
"Nc1ccccc1NC(=O)c1ccc(OC2CCCN(CC3CC3)CC2)cc1 (stereo not shown) [Compound 38, N-(2-aminophenyl)-4-((1-(cyclopropylmethyl)azepan-4-yl)oxy)benzamide dihydrochloride]",2 to 3,–
"Nc1ccccc1NC(=O)c1ccc(O[C@H]2CCCN(CC3CC3)CC2)cc1 [Compound 38A, (S)-N-(2-aminophenyl)-4-((1-(cyclopropylmethyl)azepan-4-yl)oxy)benzamide]",< 1,–
"Nc1ccccc1NC(=O)c1ccc(O[C@@H]2CCCN(CC3CC3)CC2)cc1 [Compound 38B, (R)-N-(2-aminophenyl)-4-((1-(cyclopropylmethyl)azepan-4-yl)oxy)benzamide]",1 to 2,–
"CC1(CN2CCCC(Oc3ccc(C(=O)Nc4ccccc4N)cc3)CC2)CC1 (stereo not shown) [Compound 39, N-(2-aminophenyl)-4-((1-((1-methylcyclopropyl)methyl)azepan-4-yl)oxy)benzamide]",3 to 5,–
"Nc1ccccc1NC(=O)c1ccc(OC2CCCN(CC3CCCCC3)CC2)cc1 (stereo not shown) [Compound 40, N-(2-aminophenyl)-4-((1-(cyclohexylmethyl)azepan-4-yl)oxy)benzamide dihydrochloride]",3 to 5,–
"Nc1ccccc1NC(=O)c1ccc(OC2CNC2)cc1 [Compound 41, N-(2-aminophenyl)-4-(azetidin-3-yloxy)benzamide hydrochloride]",1 to 2,–
"CN1CC(Oc2ccc(C(=O)Nc3ccccc3N)cc2)C1 [Compound 42, N-(2-aminophenyl)-4-((1-methylazetidin-3-yl)oxy)benzamide]",1 to 2,–
"CC(C)CN1CC(Oc2ccc(C(=O)Nc3ccccc3N)cc2)C1 [Compound 43, N-(2-aminophenyl)-4-((1-isobutylazetidin-3-yl)oxy)benzamide dihydrochloride]",1 to 2,–
"CC(C)(O)CN1CC(Oc2ccc(C(=O)Nc3ccccc3N)cc2)C1 [Compound 44, N-(2-aminophenyl)-4-((1-(2-hydroxy-2-methylpropyl)azetidin-3-yl)oxy)benzamide dihydrochloride]",1 to 2,–
"CC(C)(C)CN1CC(Oc2ccc(C(=O)Nc3ccccc3N)cc2)C1 [Compound 45, dihydrochloride]",1 to 2,–
"Nc1ccccc1NC(=O)c1ccc(OC2CN(CC3CC3)C2)cc1 [Compound 46, N-(2-aminophenyl)-4-((1-(cyclopropylmethyl)azetidin-3-yl)oxy)benzamide dihydrochloride]",1 to 2,–
"CC1(CN2CC(Oc3ccc(C(=O)Nc4ccccc4N)cc3)C2)CC1 [Compound 47, N-(2-aminophenyl)-4-((1-((1-methylcyclopropyl)methyl)azetidin-3-yl)oxy)benzamide dihydrochloride]",1 to 2,–
"Nc1ccccc1NC(=O)c1ccc(OC2CN(CC3CCCCC3)C2)cc1 [Compound 48, N-(2-aminophenyl)-4-((1-(cyclohexylmethyl)azetidin-3-yl)oxy)benzamide dihydrochloride]",2 to 3,–
"Nc1ccccc1NC(=O)c1ccc(O[C@H]2CCNC2)cc1 [Compound 49, (S)-N-(2-aminophenyl)-4-(pyrrolidin-3-yloxy)benzamide hydrochloride]",2 to 3,–
"CN1CC[C@H](Oc2ccc(C(=O)Nc3ccccc3N)cc2)C1 [Compound 50, (S)-N-(2-aminophenyl)-4-((1-methylpyrrolidin-3-yl)oxy)benzamide dihydrochloride]",2 to 3,–
"CC(C)CN1CC[C@H](Oc2ccc(C(=O)Nc3ccccc3N)cc2)C1 [Compound 51, (S)-N-(2-aminophenyl)-4-((1-isobutylpyrrolidin-3-yl)oxy)benzamide dihydrochloride]",1 to 2,–
"CC(C)(O)CN1CC[C@H](Oc2ccc(C(=O)Nc3ccccc3N)cc2)C1 [Compound 52, (S)-N-(2-aminophenyl)-4-((1-(2-hydroxy-2-methylpropyl)pyrrolidin-3-yl)oxy)benzamide dihydrochloride]",1 to 2,–
"CC(C)(C)CN1CC[C@H](Oc2ccc(C(=O)Nc3ccccc3N)cc2)C1 [Compound 53, (S)-N-(2-aminophenyl)-4-((1-neopentylpyrrolidin-3-yl)oxy)benzamide]",1 to 2,–

# From US10308608B2, “Histone deacetylase inhibitors” (BIOMARIN PHARMACEUTICAL INC., priority 2015, dated 2019)
